Data published in patent US9982249B2, “Xylose isomerases and their uses” (BP Corporation North America Inc., priority 2012, dated 2018).

What was measured:
Test in all cases: Km and Vmax determination at pH 6 (XI activity assay coupled to sorbitol dehydrogenase, Hanes plot)
Type in all cases: biochemical
Settings in all cases: xylose about 40-600 mM, about 35° C., lysate of S. cerevisiae CEN.PK2-1Ca expressing XI from p426PGK1
[1] = test system: Firmicutes xylose isomerase, clone 1753MI4_001, SEQ ID NO: 38
Protocol: (§1) XI activity in cell lysates was determined using a method based on that of Kersters-Hilderson et al., 1986, Enzyme Microb. Technol. 9:145-148, in which enzymatic conversion of xylose to xylulose by the XI is coupled with the enzymatic conversion of the product (xylulose) to xylitol via the enzyme sorbitol dehydrogenase (SDH). SDH activity requires the oxidation of NADH to NAD^+. The rate of oxidation of NADH is directly proportional to the rate of SDH conversion of D-xylulose to D-xylitol and is measured by the decrease in absorbance at 340 nm One unit of enzyme activity as measured by this assay is a decrease of […] of NADH per minute under assay conditions. All reactions, solutions, plates, and spectrophotometer were equilibrated to about 35° C. prior to use. Assays were performed either on fresh lysates immediately after preparation or lysates that had been frozen at −20° C. immediately after preparation. Assays were performed using a BioTek Model: Synergy H1 Hybrid Reader spectrophotometer and 96-well plates (Corning, Model #Costar® #3598). All spectrophotometric readings were performed at 340 nm. […]
(§2) The reaction buffer used for experiments at pH 7.5 was about 100 mM Tris-HCl (pH 7.5). […] For experiments where activity was also measured at pH 6, the buffer was changed to about 100 mM sodium phosphate, pH 6. […]
(§3) Any sample dilutions were performed using the reaction buffer as diluent. […] Reactions were mixed and read immediately using kinetic assay mode for about 10 minutes. Volumetric activity (VA) units are in milli-absorbance (mA) units per minute per ml of lysate added to the reactions (mA/min/ml). […] If protein quantitation was performed, specific activities (SA) were calculated where the units for SA are (mole NADH^+/min/mg, or U/mg lysate protein). […]
(§4) The Km and Vmax at pH 6 were determined for a subset of the XI clones, expressed on p426PGK1 vector in Saccharomyces cerevisiae CEN.PK2-1Ca (ATCC: MYA1108), using the XI activity assay described in the Materials and Methods and varying the concentrations of xylose from about 40-600 mM. […]

[2] = test system: Prevotella xylose isomerase, clone 1754MI1_001, SEQ ID NO: 78
Protocol: as §1, §2, §3, §4

[3] = test system: Prevotella xylose isomerase, clone 5586MI108_002, SEQ ID NO: 96
Protocol: as §1, §2, §3, §4

## OC1OC[C@@H](O)[C@H](O)[C@H]1O (stereo partly drawn) [xylose, D-xylose]
[1]
  Km: 28.8 mM
[2]
  Km: 35.2 mM
[3]
  Km: 33.7 mM
